In patent US7763728B2, “Tetrahydropyridothiophenes” (4SC AG, priority 2005, dated 2010):

How the values were obtained:
[1] = tested on: RKO (RKOp27) human colon adenocarcinoma cells; test: Alamar Blue cell viability assay, anti-proliferative/cytotoxic activity on proliferating (uninduced) RKOp27 cells; format: cell-based; details: 72 hours incubation, absence of the inducer Ponasterone A, read-out: IC50 RKO p27 uninduced (proliferating)
Procedure, shortened: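 RKOp27 subclones seeded at 5000 cells/well, compounds added after 24 h in DMEM/10% FCS, quadruplicates, 72 h at 37 °C, 5% CO2. Alamar Blue fluorescence (ex 544/em 590 nm) normalised to untreated cells (1% DMSO medium) as 100%; IC50 from concentration-effect curves.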

[2] = tested on: RKO colon adenocarcinoma cells (RKOp27) arrested by the expression of ectopic p27Kip1; test: Alamar Blue cell viability assay on RKOp27 cells arrested by p27Kip1 expression induced by Ponasterone A; format: cell-based; details: Homo sapiens, 72 hours incubation, 10 μM Ponasterone A, read-out: IC50 RKO p27 induced (arrested)
Procedure, shortened: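 RKOp27 cells, 15000/well, held in DMEM with 10% FCS and with or without 10 μM Ponasterone A to induce p27Kip1 arrest. Compound dilutions added 24 h after seeding, then 72 h at 37 °C in quadruplicate. Alamar Blue fluorescence (544/590 nm) gave % viability relative to untreated cells.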

IC50 [2]: ≥ 40 µM
Structure (SMILES): COc1cccc(CCC(=O)Nc2sc3c(c2C#N)CCN(C(=O)Cc2cccnc2)C3)c1 [Example 39, N-[3-Cyano-6-(2-pyridin-3-yl-ethanoyl)-4,5,6,7-tetrahydro-thieno[2,3-c]pyridin-2-yl]-3-(3-methoxy-phenyl)-propionamide]
IC50 [1]: ≤ 0.3 µM
